The results in this text go back to US20100168228A1, “NOVEL CHEMOTHERAPEUTIC AGENTS AGAINST INFLAMMATION AND CANCER” (RELIANCE LIFE SCIENCES PVT. LTD., priority 2006, published 2010).

Each structure is given as a SMILES string.

Common to all, as to assay type: cell-based, human
The test system of assay [1] is Jurkat cells. In words: DNA fragmentation assay, Jurkat. The conditions noted are these: 24 h. As to the method: DNA fragmentation Assay: After treatment with the compounds for 24 h, cells were harvested and washed in PBS. The cell pellet was incubated with lysis buffer (10 mM Tris-HCl pH 7.5, 1 mM EDTA, 1% SDS and 80 ug/ml proteinase K) at 37° C. overnight. After extraction with phenol/chloroform, the DNA was precipitated with 100% ethanol and then dissolved in Tris-EDTA buffer (pH 8.0) with RNase A at 37° C. The DNA estimation was performed by taking absorbance at 260/280 nm, and DNA was resolved in a 1.8% agarose gel, stained with ethidium bromide and visualized under a UV transilluminator.

The next assay concerns U937 cells. In words: Cell cycle analysis, U937. Conditions: 24 h. As to the method: FIG. 17: Differential effect of compound 27 on the cell cycle distribution in U937 cell line. Cells were treated with different concentration of the compound for 24 h and after staining with PI, cell cycle distribution was analyzed using Flow Cytometer. The data indicates the percentage of cells in each phase of the cell cycle.
Cell Cycle Analysis: Cells (log phase culture) were treated with vehicles alone (similar volumes of DMSO) or with the compound (various concentrations) to be tested for 24 h. Untreated cells were also included in this experiment for comparison. After treatments, the cells were harvested and washed with cold PBS. Cells were then resuspended in cold PBS (300 μl) and 100% chilled ethanol (700 μl), vortexed, and incubated at room temperature for 1 h. Samples were centrifuged at 200×g for 5 minutes and the supernatant was removed. A solution containing propidium iodide (100 μg/ml) and RNase A (1 mg/ml) was added to the samples and incubated for 1 h at room temperature. Samples were then transferred to 12×75 mm polystyrene tubes and analyzed on flow cytometer. Flow cytometry analyses were done on FACSCalibur (Becton Dickinson, San Jose, Calif.) and data were analyzed using CellQuest analysis software.

Another assay relates to U937 cell line. In words: Apoptosis by PARP cleavage (FACS), U937. Conditions: U937, 100 nM, 24 h. How it is done: FIG. 19: Effect of compound 27 on the apoptosis in cells with different p53 status. Extent of apoptosis in different cells was measured by staining the cells for PARP cleavage followed by FACS analysis. Cells were treated with 100 nM of the compound for 24 h and the level of apoptosis was seen. Percentage apoptotic populations are represented as the M2 gated population.
PARP Cleavage Assay using Flow Cytometry: Extent of PARP cleavage is determined using polyclonal antibody specifically recognizing the 85 kDa fragment of cleaved PARP (NSB 699 Novus Biologicals) and can be used as a marker for detecting apoptotic cells. Treated cells were fixed with 70% chilled ethanol and permeabilized for 30 min at RT (PBS+0.5% BSA+0.02% NaN3+0.5% saponin) and stained with anti PARP-FITC (10 μl/10^6 cells) for one hour at RT. Cells were washed twice with wash buffer (PBS+1% heat inactivated FBS) and analysed using FACS.

The test system of assay [2] is Jurkat cells. In words: Lipid peroxidation, TBARS assay. Conditions: pretreated 3 h, TNF 1 nM 1 h. How it is done: Lipid peroxidation was assessed by the TBARS assay, which detects mainly malondialdehyde (MDA), a product of the peroxidation of polyunsaturated fatty acids and related esters. TBARS were measured by a modification of the method described previously, (Ohkawa et al., Anal. Biochem. 95:351-358. (1979)). Jurkat cells, 6×10^6 cells in 2 ml were pretreated with either media or different concentrations of CAMVE (as described in the Figure legends) for 3 h and then stimulated with 1 nM TNF for 1 h. Cells were washed before undergoing three cycles of freeze-thawing in 200 μl of water. A 20 μl aliquot was subsequently removed for Bradford protein determination, and 800 μl of assay mix (0.4% (w/v) thiobarbituric acid, 0.5% (w/v) SDS, 9.4% (v/v) acetic acid, pH 3.5) was added to the remaining sample. Samples were incubated for 60 min at 95° C., cooled at room temperature, and centrifuged at 14,000×g for 10 min, and the absorbance of the supernatants was read at 532 nm against a standard curve prepared using the MDA standard (10 mM 1,1,3,3-tetramethoxypropane in 20 mM Tris-HCL, pH 7.4). Results were calculated as nmol of MDA equivalents/mg of protein and expressed as a percentage of matched control values.

The subject of the next assay is NF-κB. Description: NF-κB activation assay, U937. The conditions noted are these: U937, 15 μM 3 h, 0.1 nM TNF 30 min. How it is done: FIG. 4: Effect of CAMVE on NF-κB activation in different cell lines. A. HeLa, MCF-7, U937, were incubated at 37° C. for 3 h with 15 μM dose of CAMVE and then stimulated with 0.1 nM TNF for 30 min. After these treatments, nuclear extracts were prepared and assayed for NF-κB using BD Transfactor ELISA method. B. RAW 264.7 cells pretreated with indicated doses of CAMVE were stimulated with 100 ng/ml LPS for 30 min and assayed for NF-κB activation.
Cell pellet was resuspended in lysis buffer (10 mM HEPES, pH 7.9, 1.5 mM MgCl2, 10 mM KCl, 1 mM PMSF, 1 mMDTT, 0.5% NP 40, 0.1 mM EGTA and 0.1 mM EDTA) and allowed to swell on ice for 15 min, followed by centrifugation at 3300×g for 20 min. The cell pellet was resuspended in a volume of lysis buffer equal to the cell pellet volume. The cell suspension was slowly drawn down into a syringe and ejected the content in a single stroke. Disrupted cells were incubated for 15 min on ice, and the disrupted cell suspension was centrifuged at 10,000×g for 20 min at 4° C. […]
The assay was performed by using wells coated with oligonucleotides having the consensus DNA binding sites for the specific transcription factors. […] Bound transcription factor was detected by a specific Primary Antibody. […] After addition of the substrate, the Absorbance was recorded at 655 nm.

Turning to `COc1cc([C@@H]2Oc3c(OC)cc(/C=C/C(=O)O)cc3[C@H]2C(=O)O)ccc1O` [compound 27, 5-[(E)-2-carboxyvinyl]-2β-(4-hydroxy-3-methoxyphenyl)-7-methoxy-2,3-dihydro-1-benzofuran-3α-carboxylic acid], the “DNA fragmentation (agarose gel)” value in the assay with Jurkat cells [1] is “typical ladder pattern of internucleosomal fragmentation”. Besides, the “sub G1 population” value is approximately 30% in the assay on U937 cells (U937, 10 μM); “no increase” in the assay with U937 cells (U937, 100 and 500 nM). Moreover, in the assay on U937 cells (U937, 5 and 10 μM, increase from-to), the “proportion of cells in the S phase” value is recorded as 26%-35%. In addition, the “proportion of cells in the G2/M phase” value in the assay with U937 cells (U937, 100, 500, 5000, 10000 nM) was “no significant increase in the proportion of cells in the G2/M phase”. Also, the “level of apoptosis (PARP cleavage)” value in the assay on U937 cell line is “does not show induction of apoptosis”.
For the compound `COC(=O)c1ccc(OC(=O)/C=C/c2ccc(O)c(O)c2)c(OC)c1` [compound 1, Methyl 4-{[(2E)-3-(3,4-dihydroxyphenyl)prop-2-enoyl]oxy}-3-methoxybenzoate], the “TNF induced lipid peroxidation” value in the assay with Jurkat cells [2] is on record as “significantly suppressed by CAMVE in a dose dependent manner”. Further, the “TNF-induced NF-κB activation” value in the assay on NF-κB was “blocks TNF-induced NF-κB activation”.
